Article PMC8286840, “Identifying SARS-CoV-2 antiviral compounds by screening for small molecule inhibitors of Nsp3 papain-like protease” (Biochemical Journal, 2021)
Counter-ions that a name gives are not always drawn. Like-named read-outs stand apart in the source and are kept apart here.

Columns and labels:
[1] = target: T1, SARS-CoV-2 PLpro (nsp3 1564–1878) (Severe acute respiratory syndrome coronavirus 2, UniProt P0DTD1); assay: biochemical; design: FRET-quenched peptide (Pro3) cleavage by PLpro, 10 min pre-incubation, slope over 20 min, normalised to no-compound control; conditions: low concentration screen, read-out: % of control remaining
[2] = target: T1, SARS-CoV-2 PLpro (nsp3 1564–1878); assay: biochemical; design: FRET-quenched peptide (Pro3) cleavage by PLpro, 10 min pre-incubation, slope over 20 min, normalised to no-compound control; conditions: high concentration screen, read-out: % of control remaining

Q: With C[C@@H](OC[C@@]1(c2ccccc2)CC[C@]2(CCC(=O)N2)CN1)c1cc(C(F)(F)F)cc(C(F)(F)F)c1 [Rolapitant] as the compound, how does the remaining activity at 1.25 µM ([1]; Well no.=7469) read?
A: 104%

Q: What about the remaining activity at 3.75 µM ([2]; Well no.=7469) of the same compound?
A: 96.2%

Q: What does the source list for C[C@@H]1O[C@H](C[N+](C)(C)C)C[C@H]1O (racemic)?
A: remaining activity at 1.25 µM ([1]; Well no.=1037): 97.2%; remaining activity at 3.75 µM ([2]; Well no.=1037): 98.2%

Q: With CCCCCCCCCCC/C=C\C/C=C\CCCC(=O)O [5(Z), 8(Z)-Eicosadienoic acid] as the compound, how does the remaining activity at 1.25 µM ([1]; Well no.=4410) read?
A: 93.6%

Q: And the remaining activity at 3.75 µM ([2]; Well no.=4410)?
A: 92.4%

Q: What does the source list for COc1ccc2cc(CCC(C)=O)ccc2c1 [Nabumetone]?
A: remaining activity at 1.25 µM ([1]; Well no.=2005): 102%; remaining activity at 3.75 µM ([2]; Well no.=2005): 101%

Q: How did the remaining activity at 1.25 µM ([1]; Well no.=2604) turn out when Nc1nccc(-c2c(-c3ccc(F)cc3)ncn2C2CCNCC2)n1 [SB220025] was run?
A: 99.6%

Q: What about the remaining activity at 3.75 µM ([2]; Well no.=2604) of the same compound?
A: 99.7%

Q: For CC(C)c1cccc(=O)c(O)c1 [Hinokitiol], which remaining activity at 1.25 µM ([1]; Well no.=3893) is on record?
A: 105%

Q: And the remaining activity at 3.75 µM ([2]; Well no.=3893)?
A: 103%

Q: How did the remaining activity at 1.25 µM ([1]; Well no.=3205) turn out when CC(C)[C@H]1C(=O)O[C@@H]2CCN3CC=C(COC(=O)[C@](C)(O)[C@]1(C)O)[C@H]23 [Trichodesmine] was run?
A: 105%

Q: And the remaining activity at 3.75 µM ([2]; Well no.=3205)?
A: 106%

Q: Which results are given for Cn1c(-c2ccc3c(c2)OCO3)cc(=O)c2ccccc21 [Graveoline]?
A: remaining activity at 1.25 µM ([1]; Well no.=3147): 102%; remaining activity at 3.75 µM ([2]; Well no.=3147): 104%

Q: N=C(N)NC(=O)Cc1c(Cl)cccc1Cl [Guanfacine.HCl] was tested. Which remaining activity at 1.25 µM ([1]; Well no.=1894) did it give?
A: 95.7%

Q: And the remaining activity at 3.75 µM ([2]; Well no.=1894)?
A: 95.2%

Q: With CN(C)C(=S)NN=C(c1ccccn1)c1ccccn1 [Dp44mT] as the compound, how does the remaining activity at 1.25 µM ([1]; Well no.=5584) read?
A: 99.1%

Q: What about the remaining activity at 3.75 µM ([2]; Well no.=5584) of the same compound?
A: 101%

Q: With COc1cc(/C=C/C(=O)c2ccc(O)cc2O)ccc1O [Homobutein] as the compound, how does the remaining activity at 1.25 µM ([1]; Well no.=3637) read?
A: 99.6%

Q: What about the remaining activity at 3.75 µM ([2]; Well no.=3637) of the same compound?
A: 102%

Q: With C[N+]1(C)CCC[C@H]1C(=O)[O-] [Stachydrine] as the compound, how does the remaining activity at 1.25 µM ([1]; Well no.=6917) read?
A: 109%

Q: What about the remaining activity at 1.25 µM ([1]; Well no.=7414) of the same compound?
A: 104%

Q: What about the remaining activity at 3.75 µM ([2]; Well no.=6917) of the same compound?
A: 93.7%

Q: What about the remaining activity at 3.75 µM ([2]; Well no.=7414) of the same compound?
A: 102%

Q: How did the remaining activity at 1.25 µM ([1]; Well no.=1906) turn out when Nc1ccn([C@@H]2O[C@H](CO)[C@@H](O)C2(F)F)c(=O)n1 [Gemcitabine] was run?
A: 97.8%

Q: What about the remaining activity at 1.25 µM ([1]; Well no.=8054) of the same compound?
A: 92.7%

Q: And the remaining activity at 3.75 µM ([2]; Well no.=1906)?
A: 98.5%

Q: And the remaining activity at 3.75 µM ([2]; Well no.=8054)?
A: 95%

Q: With Cc1c(Nc2ncccc2C(=O)O)cccc1C(F)(F)F [Flunixin meglumin] as the compound, how does the remaining activity at 1.25 µM ([1]; Well no.=5094) read?
A: 103%

Q: And the remaining activity at 3.75 µM ([2]; Well no.=5094)?
A: 108%

Q: How did the remaining activity at 1.25 µM ([1]; Well no.=5246) turn out when O=c1[nH]cnc2nc[nH]c12 [Hypoxanthine] was run?
A: 96.5%

Q: And the remaining activity at 1.25 µM ([1]; Well no.=7269)?
A: 91.9%

Q: And the remaining activity at 3.75 µM ([2]; Well no.=5246)?
A: 96.5%

Q: And the remaining activity at 3.75 µM ([2]; Well no.=7269)?
A: 89.6%

Q: For CC(=O)N[C@H]1[C@H]([C@H](O)[C@H](O)CO)OC(C(=O)O)=C[C@@H]1NC(=N)N [Zanamivir], which remaining activity at 1.25 µM ([1]; Well no.=5883) is on record?
A: 103%

Q: What about the remaining activity at 3.75 µM ([2]; Well no.=5883) of the same compound?
A: 104%

Q: What does the source list for COc1ccc(CCN2CCC(Nc3nc4ccccc4n3Cc3ccc(F)cc3)CC2)cc1 [Astemizole]?
A: remaining activity at 1.25 µM ([1]; Well no.=2054): 102%; remaining activity at 3.75 µM ([2]; Well no.=2054): 102%

Q: How did the remaining activity at 1.25 µM ([1]; Well no.=3116) turn out when O=C(O)C1=C[C@@H](O)[C@@H](O)[C@H](O)C1 [Shikimic acid] was run?
A: 98.2%

Q: What about the remaining activity at 1.25 µM ([1]; Well no.=7209) of the same compound?
A: 104%

Q: What about the remaining activity at 3.75 µM ([2]; Well no.=3116) of the same compound?
A: 98.6%

Q: And the remaining activity at 3.75 µM ([2]; Well no.=7209)?
A: 102%

Q: For CCOC(=O)C(C)(C)Oc1ccc(Cl)cc1 [Clofibrate], which remaining activity at 1.25 µM ([1]; Well no.=326) is on record?
A: 94.4%

Q: What about the remaining activity at 1.25 µM ([1]; Well no.=1899) of the same compound?
A: 94.1%

Q: And the remaining activity at 1.25 µM ([1]; Well no.=4468)?
A: 93.7%

Q: And the remaining activity at 3.75 µM ([2]; Well no.=326)?
A: 94.8%

Q: What about the remaining activity at 3.75 µM ([2]; Well no.=1899) of the same compound?
A: 94%

Q: And the remaining activity at 3.75 µM ([2]; Well no.=4468)?
A: 99.4%

Q: What does the source list for C[C@H](CCC(=O)O)[C@H]1CC[C@H]2[C@@H]3CC[C@@H]4C[C@H](O)CC[C@]4(C)[C@H]3C[C@H](O)[C@]12C [Deoxycholic acid]?
A: remaining activity at 1.25 µM ([1]; Well no.=6153): 107%; remaining activity at 1.25 µM ([1]; Well no.=8537): 102%; remaining activity at 3.75 µM ([2]; Well no.=6153): 112%; remaining activity at 3.75 µM ([2]; Well no.=8537): 103%

Q: How did the remaining activity at 1.25 µM ([1]; Well no.=3514) turn out when O=c1oc2cc(O)ccc2c2oc3cc(O)ccc3c12 [Coumestrol] was run?
A: 100%

Q: What about the remaining activity at 3.75 µM ([2]; Well no.=3514) of the same compound?
A: 93.2%

Q: With OCc1ccc(-c2ccc(-c3ccc(CO)s3)o2)s1 [RITA (NSC 652287)] as the compound, how does the remaining activity at 1.25 µM ([1]; Well no.=4741) read?
A: 103%

Q: What about the remaining activity at 3.75 µM ([2]; Well no.=4741) of the same compound?
A: 108%

Q: O=C(O)/C=C1\CCCc2ccccc2C1O (stereo not drawn) [NCS-382] was tested. Which remaining activity at 1.25 µM ([1]; Well no.=903) did it give?
A: 101%

Q: What about the remaining activity at 3.75 µM ([2]; Well no.=903) of the same compound?
A: 99.9%
